Reference: publication PMC12282101, “Heat shock protein 90 chaperone activity is required for hepatitis A virus replication” (Journal of Virology, 2025)
Structures can show the parent of a compound that is named as a salt. Where two headings read alike, the source gives them in different places.

How the values were obtained:
Huh-7.5.1 cells [1] = settings: 10 µM
18f-NLuc reporter virus = experiment: microbe, parasite or virus in culture; format: cell-based, Hepatitis A virus; settings: for activity at 10 µM: Hepatovirus A, Huh-7.5.1, 72 h, read-out: Normalized HAV production
Huh-7.5.1 cells [2] = experiment: Cell viability in the chemical screen (Cell TiterGlo); settings: 10 µM compound, 72 h

| Compound | Viability Percent DMSO (Huh-7.5.1 cells [1]) [Percent DMSO] | activity at 10 µM (18f-NLuc reporter virus) [%] | Normalized HAV production (18f-NLuc reporter virus) | Viability Percent DMSO (Huh-7.5.1 cells [2]) [Percent DMSO] |
| --- | --- | --- | --- | --- |
| S=C(NCCc1ccccn1)Nc1ccc(Br)cn1 [Trovirdine] | 165 | 71 |  |  |
| Vitamin E | 97 |  | 1.19 |  |
| NCCCNCCCCNCCCN [Spermine] | 112 | 96 |  |  |
| CC(C)CN(C[C@@H](O)[C@H](Cc1ccccc1)NC(=O)O[C@H]1CO[C@H]2OCC[C@H]21)S(=O)(=O)c1ccc(N)cc1 [Darunavir] | 106 | 99 |  |  |
| Clc1ccc(C(Cn2ccnc2)OCc2ccsc2Cl)c(Cl)c1 (stereo not drawn) [Vagistat] | 93 | 109 |  |  |
| CCOC(=O)c1c(CSc2ccccc2)n(C)c2cc(Br)c(O)c(CN(C)C)c12.Cl [Arbidol hydrochloride] |  |  | 0.78 | 105 |
| COC(=O)N[C@H](C(=O)N1CCC[C@H]1c1nc(-c2ccc(-c3ccc(-c4c[nH]c([C@@H]5CCCN5C(=O)[C@@H](NC(=O)OC)C(C)C)n4)cc3)cc2)c[nH]1)C(C)C [Daclatasvir dihydrochloride] |  | 88 |  | 125 |
| CC(C)(C)C#Cc1cc(N(C(=O)[C@H]2CC[C@H](C)CC2)[C@H]2CC[C@H](O)CC2)c(C(=O)O)s1 [Lomibuvir] |  | 97 |  | 125 |
| C=CC1=C(C(=O)O)N2C(=O)[C@@H](NC(=O)/C(=N\O)c3csc(N)n3)[C@H]2SC1 [Cefdinir] |  | 97 |  | 101 |
| Nc1ncnc2c1ncn2[C@@H]1O[C@H](COP(=O)(O)O)[C@@H](O)[C@H]1O.O [Adenosine 5'-monophosphate monohydrate] |  | 93 |  | 115 |
| CC(=O)Oc1ccccc1C(=O)Nc1ncc([N+](=O)[O-])s1 [Nitazoxanide] |  | 24 |  | 41 |
| CC(C)=O.COC(=O)N[C@H](C(=O)N1CC2(CC2)C[C@H]1c1ncc(-c2ccc3c(c2)C(F)(F)c2cc(-c4ccc5nc([C@@H]6[C@H]7CC[C@H](C7)N6C(=O)[C@@H](NC(=O)OC)C(C)C)[nH]c5c4)ccc2-3)[nH]1)C(C)C [Ledipasvir acetone] |  |  | 0.48 | 172 |
| CC1(C)[C@@H](O[C@H]2O[C@H](C(=O)O)[C@@H](O)[C@H](O)[C@H]2O[C@@H]2O[C@H](C(=O)O)[C@@H](O)[C@H](O)[C@H]2O)CC[C@]2(C)[C@H]3C(=O)C=C4[C@@H]5C[C@@](C)(C(=O)O)CC[C@]5(C)CC[C@@]4(C)[C@]3(C)CC[C@@H]12 [Glycyrrhizin] |  | 79 |  | 124 |
| COc1ncnc(NS(=O)(=O)c2ccc(N)cc2)c1OC [Sulfadoxine] |  | 69 |  | 118 |
| O=C1c2cccc(O)c2C(=O)c2c(O)cc(CO)cc21 [Aloe-emodin] |  | 118 |  | 90 |
| O=C1C[C@@H](c2ccc(O)cc2)Oc2cc(O)cc(O)c21 [Naringenin] |  | 86 |  | 112 |
| O=C(/C=C/c1ccc(O)cc1)c1ccc(O)cc1O [Isoliquiritigenin] |  | 104 |  | 100 |
| CCOC(=O)c1c(C)n(C)c2ccc(O)cc12 [Mecarbinate] |  |  | 1.17 | 100 |
| Nc1nc(O)c2ncn(COC(CO)CO)c2n1 [Ganciclovir] |  | 87 |  | 115 |
| CC(=O)Oc1c(C)c(C)c2c(c1C)CCC(C)(CCC[C@H](C)CCC[C@H](C)CCCC(C)C)O2 (stereo partly drawn) [Vitamin E Acetate] |  | 133 |  | 82 |

| Compound | Viability Percent DMSO (Huh-7.5.1 cells [1]) [Percent DMSO] | activity at 10 µM (18f-NLuc reporter virus) [%] | Normalized HAV production (18f-NLuc reporter virus) | Viability Percent DMSO (Huh-7.5.1 cells [2]) [Percent DMSO] |
| --- | --- | --- | --- | --- |
| Cl.N=C(N=C(N)N)N1CCOCC1 [Moroxydine hydrochloride] |  |  | 1.21 | 125 |
| CC1(C)S[C@@H]2[C@H](NC(=O)[C@H](N)c3ccccc3)C(=O)N2[C@H]1C(=O)O [Ampicillin Trihydrate] |  | 76 |  | 116 |
| CN(C)C[C@H](O)Cn1c2ccc(Br)cc2c2cc(Br)ccc21 (racemic) [Wiskostatin] |  | 101 |  | 92 |
| Cc1ccnc2c1NC(=O)c1cccnc1N2C1CC1 [Nevirapine] |  | 104 |  | 100 |
| CC(=O)OCC(=O)[C@@]1(O)CC[C@H]2[C@@H]3CCC4=CC(=O)C=C[C@]4(C)[C@@]3(Cl)[C@@H](Cl)C[C@@]21C [Dichlorisone Acetate] |  | 97 |  | 105 |
| Cc1cc(O)cc(C)c1Cl [Chloroxylenol] |  | 90 |  | 108 |
| C[C@@H](c1ncncc1F)[C@](O)(Cn1cncn1)c1ccc(F)cc1F [Voriconazole] |  | 133 |  | 123 |
| CC1(C)S[C@@H]2[C@H](NC(=O)[C@H](NC(=O)N3CCNC3=O)c3ccccc3)C(=O)N2[C@H]1C(=O)O [Azlocillin sodium] |  | 132 |  | 98 |
| CO/N=C(\C(=O)N[C@@H]1C(=O)N2C(C(=O)O)=C(COC(C)=O)CS[C@H]12)c1csc(N)n1 [Cefotaxime sodium] |  | 80 |  | 113 |
| C[C@@]1(F)[C@H](O)[C@@H](CO)O[C@H]1n1ccc(=O)[nH]c1=O [PSI6206] |  |  | 1.52 | 104 |
| Nc1nc2c(ncn2CCC(CO)CO)c(=O)[nH]1 [Penciclovir] |  | 111 |  | 96 |
| CN(C(=O)CN(CCO)CC(=O)N(C)C(C)(C)Cc1ccccc1)C(C)(C)Cc1ccccc1 [Oxethazaine] |  | 76 |  | 102 |
| O=c1[nH]c(=O)n([C@H]2C[C@H](O)[C@@H](CO)O2)cc1C(F)(F)F [Trifluridine] |  | 107 |  | 96 |
| O=c1[nH]c(=O)n([C@H]2C[C@H](O)[C@@H](CO)O2)cc1/C=C/Br [Brivudine] |  | 94 |  | 110 |
| COc1cnc(-n2cnc(C)n2)c2c1c(C(=O)C(=O)N1CCN(C(=O)c3ccccc3)CC1)cn2COP(=O)(O)O [Fostemsavir] |  | 92 |  | 129 |
| CN(C)[C@@H]1C(O)=C(C(N)=O)C(=O)[C@@]2(O)C(O)=C3C(=O)c4c(O)cccc4[C@@](C)(O)[C@H]3C[C@@H]12 [Tetracycline] |  | 89 |  | 114 |
| CCS(=O)(=O)CCn1c([N+](=O)[O-])cnc1C [Tinidazole] |  | 78 |  | 108 |
| Cc1nc(Nc2ccc(F)cc2)nc(N2CCc3ccccc3C2C)c1C (stereo not drawn) [Revaprazan hydrochloride] |  | 87 |  | 115 |
| C[C@H]1CO[C@@H]2Cn3cc(C(=O)NCc4ccc(F)cc4F)c(=O)c(O)c3C(=O)N12 [Cabotegravir] |  | 49 |  | 170 |
